Patent US9175045B2, “Peptidomimetic macrocycles” (Aileron Therapeutics, Inc., priority 2008, dated 2015)
Numbered stars: 1 amine (or outer) side, 2 acyl side, 3 side chain; on linkers, the order of the positions; unused ones are H or OH. Bridge positions count the residues as written; N and C are the ends. Square brackets hold non-standard residues; d marks the D form. Peptide text beside a SMILES is read from it. * marks the point of attachment. ξ: configuration not given here. ξαMeNle(6-ylidene) = CC(CCCC=[*:3])(N[*:1])C(=O)[*:2]; S5 = C=CCCC[C@](C)(N)C(=O)O; Nle = CCCC[C@H](N)C(=O)O; Aib = CC(C)(N)C(=O)O; Propionyl = CCC(=O)*

Experiments:
[1] = system: Jurkat cell line; assay type: cell-based; conditions: for EC50: 24 h
Description: Jurkat cell line (Clone E6-1, ATCC catalog #TIB-152) is grown in specific serum-supplemented media (RPMI-1640, Invitrogen catalog #22400) as recommended by ATCC. A day prior to the initiation of the study, cells are split at optimal cell density (2×10^5-5×10^5 cells/ml) to assure actively dividing cells. The next day, cells are washed twice in serum-free Opti-MEM media (Invitrogen, Catalog #51985) and cells are then plated at optimal cell density (10,000 cells/well) in 50 μl Opti-MEM media or Opti-MEM supplemented with 2% or 10% human serum (Bioreclamation, catalog #HMSRM) in 96-well white tissue culture plate (Nunc, catalog #136102).
For serum free experiment, crosslinked polypeptides are diluted from 2 mM stocks (100% DMSO) in sterile water to prepare 400 μM working solutions. The crosslinked polypeptides and controls are diluted 10-fold first and then serially two-fold diluted in Opti-MEM in dosing plates to provide concentrations of between 1.2 and 40 μM. 50 μl of each dilution is then added to the appropriate wells of the test plate to achieve final concentrations of the polypeptides equal to between 0.6 to 20 μM. For studies using Opti-MEM supplemented with human serum (Bioreclamation, catalog #HMSRM), crosslinked polypeptides are diluted from 10 mM stocks (100% DMSO) in sterile water to prepare 2 mM working solutions. The crosslinked polypeptides and controls are diluted 10-fold first and then serially two-fold diluted in Opti-MEM in the presence of 2% or 10% of human serum to provide concentrations of the polypeptides equal to between 6.25 to 200 μM in dosing plates. 50 μl of each dilution is then added to the appropriate wells of the test plate to achieve final concentrations of the polypeptides equal to between 3.125 to 100 μM. Controls included wells without polypeptides containing the same concentration of DMSO as the wells containing the macrocycles, wells containing 0.1% Triton X-100 and wells containing no cells. Plates are incubated for 24 hours at 37° C. in humidified 5% CO2 atmosphere.
At the end of the incubation period, CellTiter-Glo assay is performed according to manufacturer's instructions (Promega, catalog #G7573) and luminescence is measured using Synergy HT Plate reader (BioTek). Luminescence correlates with viability. A reduction in viability reflects the ability of the test compounds to induce programmed cell death via BAX and BAK.

[2] = molecular target: human serum proteins; assay: Apparent affinity to human serum proteins (Kd*) by EC50 shift analysis; assay type: in vitro ADME; conditions: nonlinear regression of EC50 shift with serum, n = 1, P = 700 μM for 100% serum
Description: The measurement of apparent Kd values for serum protein by EC50 shift analysis provides a simple and rapid means of quantifying the propensity of experimental compounds to bind HSA and other serum proteins. A linear relationship exists between the apparent EC50 in the presence of serum protein (EC′50) and the amount of serum protein added to an in vitro assay. This relationship is defined by the binding affinity of the compound for serum proteins, expressed as Kd*. This term is an experimentally determined, apparent dissociation constant that may result from the cumulative effects of multiple, experimentally indistinguishable, binding events. The form of this relationship is presented here in Eq. 0.3, and its derivation can be found in Copeland et al, Biorg. Med. Chem. Lett. 2004, 14:2309-2312. [formula] A significant proportion of serum protein binding can be ascribed to drug interactions with HSA, due to the very high concentration of this protein in serum (35-50 g/L or 530-758 μM). To calculate the Kd value for these compounds we have assumed that the shift in EC50 upon protein addition can be ascribed fully to the HSA present in the added serum, where P is 700 μM for 100% serum, P is 70 μM for 10% serum, etc. We further made the simplifying assumption that all of the compounds bind HSA with a 1:1 stoichiometry, so that the term n in Eq. (0.3) is fixed at unity. With these parameters in place we calculated the Kd* value for each stapled peptide from the changes in EC50 values with increasing serum (and serum protein) concentrations by nonlinear regression analysis of Eq. 0.3 using Mathematica 4.1 (Wolfram Research, Inc., www.wolfram.com). EC′50 values in whole blood are estimated by setting P in Eq. 0.3 to 700 μM [HSA].

[3] = molecular target: T1, human serum proteins (binding ascribed fully to human serum albumin, HSA) (human, UniProt P02768 25-609); assay: cell-based or functional assay
[4] = molecular target: T1, human serum proteins (binding ascribed …); assay: apparent Kd* by EC50 shift analysis: Jurkat viability EC50 at 0, 2 and 10% human serum, fit assuming 1:1 binding to HSA

T1 sequence (P02768 25-609 limits assumed): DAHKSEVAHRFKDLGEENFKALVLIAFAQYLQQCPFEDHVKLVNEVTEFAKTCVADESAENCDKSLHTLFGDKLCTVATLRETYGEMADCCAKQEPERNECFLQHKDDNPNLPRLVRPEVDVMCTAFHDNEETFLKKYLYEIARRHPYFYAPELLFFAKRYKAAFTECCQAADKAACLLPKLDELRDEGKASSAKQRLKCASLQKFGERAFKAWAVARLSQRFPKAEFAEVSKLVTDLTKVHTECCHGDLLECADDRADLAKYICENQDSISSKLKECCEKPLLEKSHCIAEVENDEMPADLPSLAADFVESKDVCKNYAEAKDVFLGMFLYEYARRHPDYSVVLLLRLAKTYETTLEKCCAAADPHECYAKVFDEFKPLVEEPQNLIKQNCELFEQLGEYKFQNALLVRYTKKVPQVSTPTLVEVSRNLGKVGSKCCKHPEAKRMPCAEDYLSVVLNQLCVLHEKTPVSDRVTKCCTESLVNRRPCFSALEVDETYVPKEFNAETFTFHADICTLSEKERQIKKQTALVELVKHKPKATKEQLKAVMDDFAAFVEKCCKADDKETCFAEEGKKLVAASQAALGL

CCCC[C@H](NC(=O)C1(C)CCCC=CCCCC(C)(NC(=O)[C@H](C)NC(=O)[C@H](CC(C)C)NC(=O)[C@H](Cc2c[nH]cn2)NC(=O)[C@H](CCCNC(=N)N)NC(=O)[C@H](C)NC(=O)[C@@H](NC(=O)[C@H](CC(N)=O)NC(=O)[C@H](CCCNC(=N)N)NC(=O)CC)[C@@H](C)CC)C(=O)N[C@@H](C(C)C)C(=O)NC(C)(C)C(=O)N[C@@H](CC(=O)O)C(=O)N1)C(=O)N[C@@H](CC(=O)O)C(=O)N[C@@H](CCCNC(=N)N)C(=O)N[C@@H](CO)C(=O)N[C@H](C(N)=O)[C@@H](C)CC (stereo partly drawn) [Compound 5, Pr-RNIARHLA$VAibD$NleDRSI-NH2] (Propionyl-RNIARHLA[ξαMeNle(6-ylidene)]V[Aib]D[ξαMeNle(6-ylidene)][Nle]DRSI-NH2; staple 9-13)
EC50 [1]: 1.6 µM | Kd [2]: 0.2 µM

CCCC[C@H](NC(=O)C1(C)CCCC=CCCCC(C)(NC(=O)C(C)(C)NC(=O)[C@H](CC(C)C)NC(=O)[C@H](Cc2c[nH]cn2)NC(=O)[C@H](CCCNC(=N)N)NC(=O)[C@H](C)NC(=O)[C@@H](NC(=O)[C@H](CC(N)=O)NC(=O)[C@H](CCCNC(=N)N)NC(=O)CC)[C@@H](C)CC)C(=O)N[C@@H](C(C)C)C(=O)NC(C)(C)C(=O)N[C@@H](CC(=O)O)C(=O)N1)C(=O)N[C@@H](CC(=O)O)C(=O)N[C@@H](CCCNC(=N)N)C(=O)N[C@@H](CO)C(=O)N[C@H](C(N)=O)[C@@H](C)CC (stereo partly drawn) [Compound 6, Pr-RNIARHLAib$VAibD$NleDRSI-NH2] (Propionyl-RNIARHL[Aib][ξαMeNle(6-ylidene)]V[Aib]D[ξαMeNle(6-ylidene)][Nle]DRSI-NH2; staple 9-13)
EC50 [1]: 1 µM | Kd [2]: 0.4 µM

CCC(=O)N[C@@H](CCCNC(=N)N)C(=O)N[C@@H](CC(N)=O)C(=O)N[C@H](C(=O)N[C@@H](C)C(=O)N[C@@H](CCCNC(=N)N)C(=O)N[C@@H](Cc1c[nH]cn1)C(=O)N[C@@H](CC(C)C)C(=O)N[C@@H](C)C(=O)NC1(C)CCCC=CCCCC(C)(C(=O)N[C@@H](Cc2ccccc2)C(=O)N[C@@H](C)C(=O)N[C@@H](CCCNC(=N)N)C(=O)N[C@@H](CO)C(=O)N[C@H](C(N)=O)[C@@H](C)CC)NC(=O)[C@H](CC(=O)O)NC(=O)C(C)(C)NC(=O)[C@H](C(C)C)NC1=O)[C@@H](C)CC (stereo partly drawn) [Compound 7, Pr-RNIARHLA$VAibD$FARSI-NH2] (Propionyl-RNIARHLA[ξαMeNle(6-ylidene)]V[Aib]D[ξαMeNle(6-ylidene)]FARSI-NH2; staple 9-13)
EC50 [1]: 2.2 µM | Kd [2]: 1.1 µM

CCCC[C@H](NC(=O)C1(C)CCCC=CCCCC(C)(NC(=O)[C@H](C)NC(=O)[C@H](CC(C)C)NC(=O)[C@H](Cc2c[nH]cn2)NC(=O)[C@H](CCCNC(=N)N)NC(=O)[C@H](C)NC(=O)[C@@H](NC(=O)[C@H](CC(N)=O)NC(=O)[C@H](CCCNC(=N)N)NC(=O)CC)[C@@H](C)CC)C(=O)N[C@@H](C(C)C)C(=O)NCC(=O)N[C@@H](CC(=O)O)C(=O)N1)C(=O)NC(C)(C)C(=O)N[C@@H](CCCNC(=N)N)C(=O)N[C@@H](CO)C(=O)N[C@H](C(N)=O)[C@@H](C)CC (stereo partly drawn) [Compound 8, Pr-RNIARHLA$VGD$NleAibRSI-NH2] (Propionyl-RNIARHLA[ξαMeNle(6-ylidene)]VGD[ξαMeNle(6-ylidene)][Nle][Aib]RSI-NH2; staple 9-13)
EC50 [1]: 2.4 µM | Kd [2]: 2.3 µM

CC[C@H](C)[C@H](NC(=O)[C@H](Cc1c[nH]c2ccccc12)NC(=O)[C@H](CCCNC(=N)N)NC(C)=O)C(=O)N[C@@H](C)C(=O)N[C@@H](CCC(N)=O)C(=O)N[C@@H](C)C(=O)N[C@@H](CC(C)C)C(=O)N[C@@H](CCCNC(=N)N)C(=O)NC1(C)CCCC=CCCCC(C)(C(=O)N[C@@H](Cc2ccccc2)C(=O)N[C@@H](CC(N)=O)C(=O)N[C@@H](C)C(=O)N[C@@H](Cc2ccccc2)C(=O)N[C@@H](Cc2ccc(O)cc2)C(=O)N[C@@H](C)C(=O)N[C@@H](CCCNC(=N)N)C(=O)N[C@@H](CCCNC(=N)N)C(N)=O)NC(=O)[C@H](CC(=O)O)NC(=O)CNC(=O)[C@H]([C@@H](C)CC)NC1=O (stereo partly drawn) [Compound 14, Ac-RWIAQALR$1GD$FNAFYARR-NH2]
EC50 [1]: 0.4 µM | Kd [2]: 2.3 µM

CC[C@H](C)[C@H](NC(=O)[C@H](CCCNC(=N)N)NC(=O)[C@H](CCCNC(=N)N)NC(=O)[C@H](CCCNC(=N)N)NC(=O)[C@H](CC(C)C)NC(=O)[C@H](CCCNC(=N)N)NC(=O)[C@H](CCC(=O)O)NC(C)=O)C(=O)NC1(C)CCCC=CCCCC(C)(C(=O)N[C@@H](Cc2c[nH]cn2)C(=O)N[C@@H](Cc2c[nH]cn2)C(=O)N[C@@H](CO)C(=O)N[C@H](C(N)=O)[C@@H](C)O)NC(=O)[C@H](CCCNC(=N)N)NC(=O)[C@H](CS)NC(=O)[C@H](CC(C)C)NC1=O (stereo partly drawn) [Compound 17, Ac-ERLRRRI$LCR$HHST-NH2] (Ac-ERLRRRI[ξαMeNle(6-ylidene)]LCR[ξαMeNle(6-ylidene)]HHST-NH2; staple 8-12)
EC50 [1]: 12 µM | efficacy in serum-free media and in the presence of serum ([1]; statement in words): high efficacy in serum-free media, which is substantially reduced in the presence of serum | Kd [2]: < 0.1 µM

CC[C@H](C)[C@H](NC(=O)[C@H](CCCNC(=N)N)NC(=O)[C@H](CCCNC(=N)N)NC(=O)[C@H](CCCNC(=N)N)NC(=O)[C@H](CC(C)C)NC(=O)[C@H](CCCNC(=N)N)NC(=O)[C@H](CCC(=O)O)NC(C)=O)C(=O)NC1(C)CCCC=CCCCC(C)(C(=O)N[C@@H](Cc2c[nH]cn2)C(=O)N[C@@H](Cc2c[nH]cn2)C(=O)N[C@@H](CO)C(=O)N[C@H](C(N)=O)[C@@H](C)O)NC(=O)[C@H](CCCNC(=N)N)NC(=O)[C@H](C)NC(=O)[C@H](CC(C)C)NC1=O (stereo partly drawn) [Compound 18, Ac-ERLRRRI$LAR$HHST-NH2] (Ac-ERLRRRI[ξαMeNle(6-ylidene)]LAR[ξαMeNle(6-ylidene)]HHST-NH2; staple 8-12)
EC50 [1]: > 20 µM | Kd [2]: < 0.1 µM

Propionyl-RNIARHL[Aib][S5]V[Aib]D[S5][Nle]DRSI-NH2 (staple 9-13) [Compound 6 (crosslinked polypeptide derived from human BID BH3)]
2% serum EC50 (Jurkat cell viability, CellTiter-Glo) [3]: 10.1 µM | 10% serum EC50 (Jurkat cell viability, CellTiter-Glo) [3]: 49.7 µM | Kd [4]: 0.4 µM

Propionyl-RNIARHLA[S5]VGD[S5][Nle][Aib]RSI-NH2 (staple 9-13) [Compound 8 (crosslinked polypeptide derived from human BID BH3)]
2% serum EC50 (Jurkat cell viability, CellTiter-Glo) [3]: 10.5 µM | 10% serum EC50 (Jurkat cell viability, CellTiter-Glo) [3]: 37.7 µM | Kd [4]: 2.3 µM

Ac-DIIRNIARHLA[S5]VGD[S5][Nle]DRSI-NH2 (staple 12-16) [Compound 1 (crosslinked polypeptide derived from human BID BH3)]
2% serum EC50 (Jurkat cell viability, CellTiter-Glo) [3]: 73.9 µM | 10% serum EC50 (Jurkat cell viability, CellTiter-Glo) [3]: > 100 µM | Kd [4]: < 0.1 µM

Propionyl-RNIARHLA[S5]V[Aib]D[S5][Nle]DRSI-NH2 (staple 9-13) [Compound 5 (crosslinked polypeptide derived from human BID BH3)]
2% serum EC50 (Jurkat cell viability, CellTiter-Glo) [3]: 16.7 µM | 10% serum EC50 (Jurkat cell viability, CellTiter-Glo) [3]: 63 µM | Kd [4]: 0.2 µM

Propionyl-RNIARHLA[S5]V[Aib]D[S5]FARSI-NH2 (staple 9-13) [Compound 7 (crosslinked polypeptide derived from human BID BH3)]
2% serum EC50 (Jurkat cell viability, CellTiter-Glo) [3]: 12.4 µM | 10% serum EC50 (Jurkat cell viability, CellTiter-Glo) [3]: 48.2 µM | Kd [4]: 1.1 µM
